Measured values published in PubChem BioAssay (NCI).
Values joined by “and” are separate entries in the source; they are usually repeats but may differ in a detail not shown here. Equal entries are not always repeated.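 Method: 48-hour compound exposure of cells in 96-well plates, five concentrations, linear interpolation of endpoints. At the GI50, growth is halved. At the TGI there is no net growth.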

Key:
Assay in all cases: NCI tumour cell line growth inhibition, 48 h
[1] = tested on: CCRF-CEM leukemia
[2] = tested on: EKVX NSCLC
[3] = tested on: HOP-62 NSCLC
[4] = tested on: HOP-92 NSCLC
[5] = tested on: M14 melanoma
[6] = tested on: MCF7 breast
[7] = tested on: MDA-MB-231 breast
[8] = tested on: MDA-MB-435
[9] = tested on: RPMI-8226 leukemia
[10] = tested on: RXF 393 renal

Compound | GI50 [1] | TGI [1] | GI50 [2] | TGI [2] | GI50 [3] | TGI [3] | GI50 [4] | TGI [4] | GI50 [5] | TGI [5] | GI50 [6] | TGI [6] | GI50 [7] | TGI [7] | GI50 [8] | TGI [8] | GI50 [9] | TGI [9] | GI50 [10] | TGI [10]
O=C(c1ccncc1)N1CCN(C2=NS(=O)(=O)c3ccccc3N2c2ccccc2)CC1 | 1950 nM | > 100 µM | 35 µM | > 100 µM | 8.06 µM | 32.3 µM | 4070 nM | 21.4 µM | 13.3 µM | > 100 µM | 7390 nM | > 100 µM | 30.7 µM | 75.2 µM | 18.9 µM | 40 µM | 35500 nM | 96.2 µM | 18.5 µM | 40.5 µM
C/C=C1\C[C@@H]2C(OC)Nc3cc(O)c(OC)cc3C(=O)N2C1 (some centres not stated) | 2.29 nM | 0.103 µM and 0.349 µM | 0.0176 µM | 0.105 µM and 0.0346 µM | 0.00296 µM | 0.0155 µM and < 0.0566 µM | 7.38 nM | 0.129 µM and < 0.0137 µM | – | 0.0428 µM and < 0.032 µM | 6.92 nM | 2.83 µM | 0.0131 µM | 0.0626 µM and 0.375 µM | 0.00819 µM | 0.0623 µM and < 0.0106 µM | 2.69 nM | – | 0.00101 µM | 0.00219 µM
COc1cc([N+](=O)[O-])c(OC)cc1-c1nc2n(c1/C(N)=N/C(=N)N)CCS2 | > 100000 nM | > 100 µM | 40.3 µM | > 100 µM | 6.23 µM | 50.6 µM | 41900 nM | > 100 µM | > 100 µM | > 100 µM | > 100000 nM | > 100 µM | 27 µM | > 100 µM | > 100 µM | > 100 µM | > 100000 nM | > 100 µM | 42.2 µM | > 100 µM
Cc1ccc2nc(CC(=O)c3ccc4ccccc4c3)c(=O)[nH]c2c1 | – | > 100 µM | – | > 100 µM | – | > 100 µM | – | > 100 µM | – | > 100 µM | – | > 100 µM | – | > 100 µM | – | > 100 µM | – | > 100 µM | – | > 100 µM
O=C(Nc1ccc(Cl)cc1F)c1cc(Cl)ccc1O | 1620 nM | > 44.9 µM | 0.891 µM | 8.27 µM | 0.999 µM | > 24.5 µM | 157 nM | 0.553 µM | 0.437 µM | 2.78 µM | 442 nM | 10.2 µM | 0.554 µM | 3.46 µM | 0.499 µM | 5.26 µM | 302 nM | 1.75 µM | 0.437 µM | 4.73 µM
CC(=O)OC1CC(C)c2c(Cl)ncnc21 (configuration not stated) | 50100 nM | > 100 µM | – | – | > 100 µM | > 100 µM | > 100000 nM | > 100 µM | > 100 µM | > 100 µM | > 100000 nM | > 100 µM | > 100 µM | > 100 µM | > 100 µM | > 100 µM | > 100000 nM | > 100 µM | > 100 µM | > 100 µM
Cc1cccc2c1NC(=O)C2(c1ccc(O)cc1)c1ccc(O)cc1 | 22300 nM | > 100 µM | 16.4 µM | 98.9 µM | 14.8 µM | 38.3 µM | 1420 nM | 27.6 µM | 15.5 µM | 41 µM | 21.9 nM | > 59.6 µM | 13.3 µM | 33.3 µM | 15.4 µM | 34.9 µM | 17900 nM | 64 µM | < 0.0181 µM | 0.709 µM
CC(C)NCCCCCNc1cc(O)cc2cccnc12 | > 51200 nM | > 100 µM | 22.8 µM | > 100 µM | > 100 µM | > 100 µM | 6890 nM | > 100 µM | > 100 µM | > 100 µM | 18700 nM | > 100 µM | 4.78 µM | > 100 µM | > 100 µM | > 100 µM | > 23100 nM | > 100 µM | > 100 µM | > 100 µM
O=C1C(Cl)=C(Nc2ccccn2)C(=O)c2ccccc21 | 3790 nM | 12.5 µM | 17.2 µM | 49.4 µM | 2.57 µM | 6.15 µM | 3170 nM | 9.84 µM | 2.07 µM | 3.84 µM | 1960 nM | 4.12 µM | 3.23 µM | 16.6 µM | 2.02 µM | 3.96 µM | 2150 nM | 7.03 µM | 10.2 µM | 21.8 µM
Cc1ccc(C)c(N2C(=O)C(=O)c3c(C)ccc(C)c32)c1 | – | – | – | > 100 µM | – | > 100 µM | – | 96.8 µM | – | 39.6 µM | – | 59 µM | – | 49.8 µM | – | 46.4 µM | – | – | – | > 100 µM
Nc1nc(Cl)nc2c1ncn2C1CCC(COP(=O)(O)OP(=O)(O)OP(=O)(O)O)O1 (configuration not stated) | – | > 100 µM | – | > 100 µM | – | 51.1 µM | – | 66.6 µM | – | 36.7 µM | – | > 100 µM | – | > 100 µM | – | 58.1 µM | – | – | – | 75 µM
CCc1cccc(CC)c1NC(=O)c1ccn2c1CCc1cnc(Nc3ccc(N4CCN(C)CC4)cc3OC)nc1-2 | 213 nM | 6.6 µM | 3.02 µM | 19.6 µM | – | – | 1950 nM | 9.66 µM | 1.59 µM | 3.62 µM | 1120 nM | 7.55 µM | 2.11 µM | 8.29 µM | 2.51 µM | 11.7 µM | 1920 nM | 6.58 µM | 1.58 µM | 3.08 µM
O=C1C(Cl)=C(Nc2cccc(O)c2)C(=O)N1c1ccc(Cl)cc1Cl | 17500 nM | 46.9 µM | 57.3 µM | > 100 µM | 32.8 µM | > 100 µM | – | – | 47.6 µM | > 100 µM | 19800 nM | 63.3 µM | 23.3 µM | 77.5 µM | 30.7 µM | > 100 µM | 7550 nM | 30.7 µM | 17 µM | 67.3 µM
O=C(Nc1cccc(-n2cc(-c3ccncc3)c(-c3ccc(O)c(Cl)c3)n2)c1)c1ccc(N2CCOCC2)c(C(F)(F)F)c1 | 1340 nM | > 50 µM | – | – | 3.07 µM | > 50 µM | 994 nM | 3.81 µM | 2.75 µM | > 50 µM | 2030 nM | > 50 µM | 0.857 µM | 3.09 µM | 5 µM | > 50 µM | 1040 nM | 4.24 µM | 0.283 µM | 2.25 µM
